Laboratory results taken from ChEMBL document CHEMBL4052713, “Bioactivity-guided isolation of chemical constituents against H2O2-induced neurotoxicity on PC12 from Cimicifuga dahurica (Turcz.) Maxim” (Bioorg Med Chem Lett, 2017).
The source made the active and inactive calls. The rule behind the calls is not given here.

System: PC-12
Assay: Neuroprotective activity in rat PC12 cells assessed as reduction in H2O2-induced cytotoxicity at 1 to 10 uM pre-incubated for 24 hrs followed by H2O2 exposure for 24 hrs by MTT assay
Assay type: functional, cell-based

Row | Compound | Activity
1 | CCOC(=O)[C@@H](OC(=O)/C=C/c1ccc(O[C@@H]2O[C@H](CO)[C@@H](O)[C@@H](O)[C@H]2O)c(OC)c1)[C@@](O)(Cc1ccc(O)cc1)C(=O)O | Active
2 | CCOC(=O)[C@](O)(Cc1ccc(O)cc1)[C@@H](O)C(=O)O | Active
3 | CCOC(=O)[C@H](O)[C@@](O)(Cc1ccc(O)cc1)C(=O)O | Active
